Marks after values point to notes of the source that are not given here.
Assays:
[1] = system: model of thrombocytopenia induced by cyclophosphamide in mice; experiment: Thrombocytopenia induced by cyclophosphamide in mice (platelets in peripheral blood); assay type: in vivo, Balb/C mice; details: cyclophosphamide model mice, 3 weeks, x ± s
Experimental: 72 Balb/C mice were selected, weighed, and randomly divided into 6 groups, i.e. the normal group, the model control group, the icariin group (positive control group), and the icaritin administration groups (high-, medium-, and low-dose groups), with 12 mice in each group. […] One week before starting to establish the model, each group was administered with the following therapeutic agents:
The normal group: administered subcutaneously with the same volume of normal saline;
The model control group: administered subcutaneously with the same volume of normal saline;
The icariin group: administered by subcutaneous injection with 2 mg/kg of icariin;
The high-dose icaritin group: administered by subcutaneous injection with 10 mg/kg of the icaritin injection of Example 11;
The medium-dose icaritin group: administered by subcutaneous injection with 5 mg/kg of the icaritin injection of Example 11;
The low-dose icaritin group: administered by subcutaneous injection with 1 mg/kg of the icaritin injection of Example 11.
Each group was administered once a day and fed normally. After consecutive administration for 3 weeks, the mice were anesthetized, and blood was sampled to measure the number of platelets and determine the effect of icaritin on the number of platelets (PLT) in the peripheral blood.

[2] = system: normal mice; experiment: Bleeding time in normal mice (tail tip cut); assay type: in vivo, Kunming mice; design: unit not given here; details: 3 days, 1 h after last administration
Experimental: 100 Kunming mice were randomly divided into 5 groups, i.e. the blank control group (normal saline group), the icariin group (positive control group), the high-dose icaritin group, the medium-dose icaritin group, and the low-dose icaritin group. Each group was administered as follows. Blank control group: administered with the same volume of normal saline by subcutaneous injection; Icariin group: administered with 2 mg/kg of icariin by injection; High-dose icaritin group: administered with the injection of icaritin of Example 1 by subcutaneous injection at a dosage of 10 mg/kg; Medium-dose icaritin group: administered with the injection of icaritin of Example 1 by subcutaneous injection at a dosage of 5 mg/kg; Low-dose icaritin group: administered with the injection of icaritin of Example 1 by subcutaneous injection at a dosage of 1 mg/kg. Measurement of the bleeding time: The normal saline group (blank control group), the icariin group (positive control group), and the icaritin administration groups (high-, medium-, and low-dose groups) were designed as follows: 50 mice were selected, weighed, and randomly divided into 5 groups, with 10 mice in each group. The animals were administered consecutively for 3 days. At 1 h after the last administration, a filter paper was rolled to form a filter paper cartridge with a diameter similar to that of the mouse body, which was closed at one end. The mouse was allowed to climb into the cartridge. Then about 3 mm of tail tip of the mouse was cut with scissors. A stopwatch was started to record the time when the bleeding started. The tail tip of the mouse was point-contacted with a filter paper gently every 15 s until there was no blood or no blood can be seen.

[3] = system: mice receiving 4 Gy of ^60Co radiation; experiment: Effect on the number of blood cells in mice receiving 4 Gy of ^60Co radiation; assay type: in vivo, Kunming mice; details: 4 Gy ^60Co irradiated mice; ip once a day for 10 days; epimedium extract 3.5 ml/kg/d, icaritin 10 mg/kg/d
Description: Mice in each group, except for the normal group (10 mice), were radiated with 4 Gy of ^60Co by one-time systemic radiation with an absorbed dose of 4 Gy and an absorbed dose rate of 0.88 Gy/min. Blood was sampled at days 3, 7 and 10 after the radiation, respectively, from orbital vein for the whole blood cell count. The mice of which the number of white blood cells was lower than 3.0×10^9/L or the number of platelets was lower than 500×10^9/L in two consecutive whole blood cell counts were excluded, and the remaining mice were used to be tested.
The mice which met the requirements of the experiment after the radiation were randomly divided into the following model control group, epimedium extract group and icaritin group, with 10 animals in each group and half male and half female. Each group was treated or administered as follows.
Group 1, the normal group: administered by intraperitoneal injection with 0.9% normal saline in an administration volume of 10 ml/kg;
Group 2, the model control group: administered by intraperitoneal injection with 0.9% normal saline in an administration volume of 10 ml/kg; […]
Each group was administered once a day for totally 10 days. […] After the test was ended, blood was sampled from abdominal aorta for routine blood test, and the total number of white blood cells and the total number of platelets were determined.

[4] = system: normal mice; experiment: Clotting time in normal mice (capillary method); assay type: in vivo, Kunming mice; design: unit not given here; details: 3 days, 1 h after last administration
Experimental: 100 Kunming mice were randomly divided into 5 groups, i.e. the blank control group (normal saline group), the icariin group (positive control group), the high-dose icaritin group, the medium-dose icaritin group, and the low-dose icaritin group. Each group was administered as follows.
Blank control group: administered with the same volume of normal saline by subcutaneous injection;
Icariin group: administered with 2 mg/kg of icariin by injection;
High-dose icaritin group: administered with the injection of icaritin of Example 1 by subcutaneous injection at a dosage of 10 mg/kg;
Medium-dose icaritin group: administered with the injection of icaritin of Example 1 by subcutaneous injection at a dosage of 5 mg/kg;
Low-dose icaritin group: administered with the injection of icaritin of Example 1 by subcutaneous injection at a dosage of 1 mg/kg.
Measurement of the clotting time: The normal saline group (blank control group), the icariin group (positive control group), and the icaritin administration groups (high-, medium-, and low-dose groups) were designed as follows: 50 mice were selected, weighed and randomly divided into 5 groups, with 10 mice in each group. The animals were administered consecutively for 3 days. At 1 h after the last administration, blood was sampled from the venous plexus by inserting a disposable 20 μl blood collection tube into the inner canthus of the mouse to collect 20 μl of blood. A small fragment of capillary was broken off every 15 s for checking the occurrence of clotting filaments. The time from the blood sampling to the occurrence of fibrous protein filaments (clotting time) was recorded, and the results were shown in Table 5.

For `COc1ccc(-c2oc3c(CC=C(C)C)c(O)cc(O)c3c(=O)c2O)cc1` [Icaritin], the PLT ([1]; low dose 1 mg/kg sc (injection of Example 11)) was 633.5 ± 43.2 10^9/L, the PLT ([1]; medium dose 5 mg/kg sc (injection of Example 11)) was 725.9 ± 66.7 10^9/L and the “Bleeding Time” value ([2]; high dose 10 mg/kg sc) was 1.86 ± 0.24**^ΔΔ. For the same molecule, the “Bleeding Time” value ([2]; low dose 1 mg/kg sc) was 3.75 ± 0.46, the “Bleeding Time” value ([2]; medium dose 5 mg/kg sc) was 2.51 ± 0.35**^Δ and the Platelets [3] was 596.2 ± 72.5^#$ 10^9/L. The White blood cells [3] was 4.225 ± 0.51^##$ 10^9/L, the “Clotting Time” value ([4]; high dose 10 mg/kg sc) was 1.96 ± 0.16**^ΔΔ and the “Clotting Time” value ([4]; low dose 1 mg/kg sc) was 3.84 ± 0.55. The “Clotting Time” value ([4]; medium dose 5 mg/kg sc) was 3.04 ± 0.31**^Δ.
